Data published in US20100285963A1, “SUBSTITUTED FLUOROALKOXYPHENYLSULFONYLUREAS” (priority 2001, published 2010).

Legend:
weeds [1] = assay: Pre-emergence test (greenhouse), damage to weeds; assay type: in vivo; settings: for activity against weeds: soil sprayed 24 hours after sowing, rated after three weeks as % damage vs untreated control
Protocol: (§1) Solvent: 5 parts by weight of acetone
(§2) Emulsifier: 1 part by weight of alkylaryl polyglycol ether
To produce a suitable preparation of active compound, 1 part by weight of active compound is mixed with the stated amount of solvent, the stated amount of emulsifier is added and the concentrate is diluted with water to the desired concentration.
Seeds of the test plants are sown in normal soil. After 24 hours, the soil is sprayed with the preparation of active compounds such that the particular amount of active compound desired is applied per unit area. The concentration of active compound in the spray liquor is chosen such that the particular amount of active compound desired is applied in 1000 liters of water per hectare.
After three weeks, the degree of damage to the plants is rated in % damage in comparison to the development of the untreated control. The figures denote: • 0%=no effect (like untreated control) • 100%=total destruction

weeds [2] = assay: Post-emergence test (greenhouse), damage to weeds; assay type: in vivo; settings: for activity against weeds: test plants of 5-15 cm sprayed, rated after three weeks as % damage vs untreated control
Protocol: as §1, §2
To product a suitable preparation of active compound, 1 part by weight of active compound is mixed with the stated amount of solvent, the stated amount of emulsifier is added and the concentrate is diluted with water to the desired concentration.
Test plants of a height of 5-15 cm are sprayed with the preparation of active compound such that the particular amounts of active compound desired are applied per unit area. The concentration of the spray liquor is chosen such that the particular amounts of active compound desired are applied in 10001 of water/ha.
After three weeks, the degree of damage to the plants is rated in % damage in comparison to the development of the untreated control.
The figures denote: • 0%=no effect (like untreated control) • 100%=total destruction

[3] = 250 g of a.i./ha, after three weeks
[4] = 60 g of a.i./ha, after three weeks, Table A6
[5] = 30 g of a.i./ha, after three weeks, Table B10
[6] = 8 g of a.i./ha, after three weeks
[7] = 30 g of a.i./ha, after three weeks, Table B8
[8] = 60 g of a.i./ha, after three weeks, Table A7
[9] = 30 g of a.i./ha, after three weeks, Table B9
[10] = 15 g of a.i./ha, after three weeks, Table A3
[11] = 60 g of a.i./ha, after three weeks
[12] = 30 g of a.i./ha, after three weeks, Table B11
[13] = 30 g of a.i./ha, after three weeks, Table B12

## COc1nc(NC(=O)NS(=O)(=O)c2c(OCCF)cccc2C(F)(F)F)nc(OC)n1 [Example 21]
Weeds [1]
  activity against weeds: very strong activity
Weeds [2]
  activity against weeds: very strong activity

## CCc1cccc(OCCCF)c1S(=O)(=O)NC(=O)Nc1nc(C)cc(C)n1 [Example 6]
Weeds [1]
  activity against weeds: very strong activity
Weeds [2]
  activity against weeds: very strong activity

## COc1nc(C)nc(NC(=O)NS(=O)(=O)c2c(C)cccc2OCCCF)n1 [Example 13]
Weeds [2]
  activity against weeds: very strong activity

## COc1nc(C)nc(NC(=O)NS(=O)(=O)c2c(C)cccc2OCCF)n1 [(1)]
Weeds [1]; [3]
  % damage Alopecurus: 100%
  % damage Amaranthus: 100%
  % damage Avena fatua: 100%
  % damage Galium: 100%
  % damage Setaria: 100%
  % damage Xanthium: 100%
Weeds [2]; [3]
  % damage Abutilon: 100%
  % damage Alopecurus: 95%
  % damage Amaranthus: 100%
  % damage Avena fatua: 95%
  % damage Galium: 100%
  % damage Setaria: 100%
  % damage Sinapis: 100%

## COc1nc(NC(=O)NS(=O)(=O)c2c(C)cccc2OCCCF)nc(OC)n1 [(15)]
Weeds [1]; [4]
  % damage Abutilon: 95%
  % damage Alopecurus: 95%
  % damage Amaranthus: 100%
  % damage Echinochloa: 95%
  % damage Galium: 95%
  % damage Sinapis: 95%
Weeds [2]; [5]
  % damage Abutilon: 95%
  % damage Alopecurus: 90%
  % damage Amaranthus: 100%
  % damage Ipomoea: 100%
  % damage Lolium: 90%
  % damage Matricaria: 100%
  % damage Stellaria: 100%

## COc1nc(C)nc(NC(=O)NS(=O)(=O)c2c(OCCF)cccc2C(F)(F)F)n1 [(3)]
Weeds [1]; [6]
  % damage Abutilon: 100%
  % damage Cyperus: 100%
  % damage Echinochloa: 100%
  % damage Galium: 100%
  % damage Solanum: 100%
  % damage Stellaria: 100%
  % damage Veronica: 100%
Weeds [2]; [7]
  % damage Abutilon: 100%
  % damage Alopecurus: 95%
  % damage Amaranthus: 100%
  % damage Lolium: 95%
  % damage Matricaria: 100%
  % damage Viola: 100%
  % damage Xanthium: 100%

## CCc1cccc(OCCCF)c1S(=O)(=O)NC(=O)Nc1nc(Cl)cc(OC)n1 [Example 18]
Weeds [2]
  activity against weeds: very strong activity

## CCc1cccc(OCCCF)c1S(=O)(=O)NC(=O)Nc1nc(C)nc(OC)n1 [Example 17]
Weeds [1]
  activity against weeds: very strong activity
Weeds [2]
  activity against weeds: very strong activity

## COc1cc(Cl)nc(NC(=O)NS(=O)(=O)c2c(C)cccc2OCCCF)n1 [Example 14]
Weeds [1]
  activity against weeds: very strong activity
Weeds [2]
  activity against weeds: very strong activity

## CCc1cccc(OCCCF)c1S(=O)(=O)NC(=O)Nc1nc(C)cc(C)n1 [(6)]
Weeds [1]; [8]
  % damage Abutilon: 90%
  % damage Alopecurus: 80%
  % damage Amaranthus: 90%
  % damage Galium: 90%
  % damage Setaria: 95%
  % damage Sinapis: 90%
Weeds [2]; [9]
  % damage Abutilon: 90%
  % damage Alopecurus: 90%
  % damage Amaranthus: 90%
  % damage Ipomoea: 100%
  % damage Xanthium: 95%

## COc1cc(OC)nc(NC(=O)NS(=O)(=O)c2c(C)cccc2OCCF)n1 [(24)]
Weeds [1]; [3]
  % damage Alopecurus: 100%
  % damage Amaranthus: 100%
  % damage Avena fatua: 95%
  % damage Galium: 100%
  % damage Setaria: 95%
  % damage Xanthium: 95%
Weeds [2]; [3]
  % damage Abutilon: 100%
  % damage Alopecurus: 100%
  % damage Amaranthus: 100%
  % damage Avena fatua: 90%
  % damage Galium: 90%
  % damage Setaria: 95%
  % damage Sinapis: 100%

## COc1cc(OC)nc(NC(=O)NS(=O)(=O)c2c(OCCF)cccc2C(F)(F)F)n1 [Example 4]
Weeds [1]
  activity against weeds: very strong activity
Weeds [2]
  activity against weeds: very strong activity

## CCCc1cccc(OCCF)c1S(=O)(=O)NC(=O)Nc1nc(OC)cc(OC)n1 [(26)]
Weeds [1]; [3]
  % damage Alopecurus: 100%
  % damage Amaranthus: 100%
  % damage Avena fatua: 90%
  % damage Galium: 95%
  % damage Setaria: 100%
  % damage Xanthium: 95%
Weeds [2]; [3]
  % damage Abutilon: 100%
  % damage Alopecurus: 95%
  % damage Amaranthus: 100%
  % damage Avena fatua: 90%
  % damage Galium: 90%
  % damage Setaria: 90%
  % damage Sinapis: 95%

## CCCc1cccc(OCCCF)c1S(=O)(=O)NC(=O)Nc1nc(C)nc(OC)n1 [Example 7]
Weeds [1]
  activity against weeds: very strong activity
Weeds [2]
  activity against weeds: very strong activity

## COc1nc(C)nc(NC(=O)[N-]S(=O)(=O)c2c(OCCF)cccc2C(F)(F)F)n1.[Na+] [(5)]
Weeds [1]; [10]
  % damage Amaranthus: 100%
  % damage Datura: 100%
  % damage Echinochloa: 100%
  % damage Galium: 100%
  % damage Matricaria: 100%
  % damage Viola: 100%
Weeds [2]; [5]
  % damage Abutilon: 100%
  % damage Alopecurus: 95%
  % damage Amaranthus: 100%
  % damage Ipomoea: 100%
  % damage Lolium: 95%
  % damage Matricaria: 100%
  % damage Stellaria: 100%

## CN(C)c1nc(NC(=O)NS(=O)(=O)c2c(OCCF)cccc2C(F)(F)F)nc(OCC(F)(F)F)n1 [(22)]
Weeds [2]; [11]
  % damage Alopecurus: 90%
  % damage Amaranthus: 100%
  % damage Galium: 95%
  % damage Ipomoea: 100%
  % damage Setaria: 95%
  % damage Sinapis: 95%

## CCCc1cccc(OCCCF)c1S(=O)(=O)NC(=O)Nc1nc(OC)nc(OC)n1 [Example 8]
Weeds [1]
  activity against weeds: very strong activity
Weeds [2]
  activity against weeds: very strong activity

## COc1cc(OC)nc(NC(=O)NS(=O)(=O)c2c(C)cccc2OCCCF)n1 [(12)]
Weeds [2]; [12]
  % damage Abutilon: 95%
  % damage Amaranthus: 95%
  % damage Datura: 95%
  % damage Echinochloa: 90%

## COc1cc(Cl)nc(NC(=O)NS(=O)(=O)c2c(OCCF)cccc2C(F)(F)F)n1 [(20)]
Weeds [1]; [8]
  % damage Abutilon: 90%
  % damage Alopecurus: 90%
  % damage Amaranthus: 95%
  % damage Galium: 95%
  % damage Setaria: 100%
  % damage Sinapis: 95%
Weeds [2]; [13]
  % damage Echinochloa: 90%
  % damage Ipomoea: 100%
  % damage Matricaria: 95%
  % damage Polygonum: 95%
  % damage Xanthium: 100%

## CN(C)c1nc(NC(=O)NS(=O)(=O)c2c(OCCF)cccc2C(F)(F)F)nc(OCC(F)(F)F)n1 [Example 22]
Weeds [2]
  activity against weeds: very strong activity

## COc1cc(OC)nc(NC(=O)NS(=O)(=O)c2c(C)cccc2OCCCF)n1 [Example 12]
Weeds [2]
  activity against weeds: very strong activity

## COc1nc(C)nc(NC(=O)[N-]S(=O)(=O)c2c(OCCF)cccc2C(F)(F)F)n1.[Na+] [Example 5]
Weeds [1]
  activity against weeds: very strong activity
Weeds [2]
  activity against weeds: very strong activity

## COc1nc(NC(=O)NS(=O)(=O)c2c(C)cccc2OCCCF)nc(OC)n1 [Example 15]
Weeds [1]
  activity against weeds: very strong activity
Weeds [2]
  activity against weeds: very strong activity

## COc1nc(C)nc(NC(=O)NS(=O)(=O)c2c(C)cccc2OCCCF)n1 [(13)]
Weeds [2]; [5]
  % damage Abutilon: 100%
  % damage Alopecurus: 90%
  % damage Amaranthus: 100%
  % damage Ipomoea: 90%
  % damage Lolium: 90%
  % damage Matricaria: 100%
  % damage Stellaria: 100%
